Molecules are shown by their SMILES.

One assay deals with ct-DNA. As to the kind of experiment: DNA binding kinetics (osmium bound to precipitated ct-DNA). Conditions: 25 μM complex, 250 μM ct-DNA, 37° C. On the procedure:
The osmium compounds were hypothesized to induce cell death through DNA interactions. Therefore, the interaction of 2 or 4 with pUC19 plasmid DNA was investigated using gel electrophoresis; the results of which are as shown in FIG. 6. As the concentration of 2 increased, there was a clear increase in the amount of nicked circular, and a concomitant decrease in the amount of supercoiled, plasmid DNA. At concentrations >250 μM, the bands in the gel smeared and then disappeared. […] The DNA binding kinetics of 2 and 4 were studied by measuring the amount of osmium bound to precipitated ct-DNA; the results of which are as shown in FIG. 7. The half-life of this reaction for 2 was 2 hours.
The amount of osmium covalently bound to ct-DNA was determined by modification of a previously reported protocol. A solution of ct-DNA (0.25 mM, nucleotide) was incubated with 2 or 4 at a bp:metal complex ratio of 5:1 at 37° C. in 1 mM sodium phosphate buffer, pH 7.4, containing 3 mM NaCl. At certain time points, a 250 μL aliquot was removed and the DNA was precipitated by adding 10 μL of NaCl (5 M) and 1.0 mL of EtOH (stored at 4° C.). The solution was centrifuged to remove DNA, and the concentration of unbound osmium was determined by GF-AAS.

Another assay deals with HMLER CSC-depleted. As to the kind of experiment: Cytotoxicity against CSC-depleted breast cancer cells. It is filed as cell-based. An excerpt: (§1) Cancer relapse is strongly linked to the existence of CSCs. […] Conventional chemotherapy and radiotherapy are often ineffective against CSCs. Although current therapies effectively reduce tumor mass by destroying the bulk of cancer cells, they are unable to remove CSCs, which persist and generate new tumors, often of a far more aggressive nature. Therefore, in order to improve clinical outcomes, treatments must have the ability to kill the entirety of cancer cells, including CSCs. The osmium compound, described in Formula (I), wherein X^1, X^2, and X^3 were chloride ligands and the bidentate ligand was a 1,10-phenanthroline ligand, was able to kill breast cancer cells (HMLER) enriched with CSCs, 2.3-fold better than CSC-depleted breast cancer cells. […] The selectivity of the osmium compound can be seen in Table 2 as well as FIGS. 17A-B and 18.
(§2) The colorimetric MTT assay was used to determine the toxicity of the osmium complexes and cisplatin. Cells (2×10^3) were seeded in each well of a 96-well plate. After incubating the cells overnight, various concentrations of test compound (0.3-100 μM) were added and incubated for 72 h (total volume 200 μL). The test compounds were prepared as 10 mM solutions in DMSO and diluted using media. The final concentration of DMSO in each well was 0.5% and this amount was present in the untreated control as well. Cisplatin was prepared as a 5 mM solution in PBS and diluted further using media. After 72 h, the medium was removed, 200 μL of a 0.4 mg/mL solution of MTT in DMEM or RPMI was added, and the plate was incubated for an additional 1-2 h. The DMEM/MTT or RPMI/MTT mixture was aspirated and 200 μL of DMSO was added to dissolve the resulting purple formazan crystals. The absorbance of the solution wells was read at 550 nm. Absorbance values were normalized to DMSO-containing control wells and plotted as concentration of test compound versus % cell viability. IC50 values were interpolated from the resulting dose dependent curves. The reported IC50 values are the average from at least three independent experiments, each of which consisted of six replicates per concentration level.

The test system of another assay is HMLER^tax CSC-enriched. As to the kind of experiment: Cytotoxicity against CSC-enriched breast cancer cells. It is filed as cell-based.
Excerpt: as §1, §2

As to `[N]#[Os]1([Cl])([Cl])([Cl])[N]2C=CC=c3ccc4c(c32)[N]1C=CC=4` [Complex 2, OsN(1,10-phenanthroline)Cl3], the “half-life of ct-DNA binding reaction” value in the assay on ct-DNA was 2 h. The figures for the IC50 in the assay with HMLER CSC-depleted and in the assay with HMLER^tax CSC-enriched were 11.2 µM and 4.91 µM, respectively. In the assay with HMLER^tax CSC-enriched (CSC-enriched vs CSC-depleted), the “HMLER^tax selectivity” value was determined as 2.31.

The record behind these values is US10662210B2, “Compositions and methods comprising osmium for the treatment of cancers” (Massachusetts Institute of Technology, priority 2014, dated 2020).
